Measured values taken from publication PMC10498452, “Targeted Protein Degradation: Advances, Challenges, and Prospects for Computational Methods” (Journal of Chemical Information and Modeling, 2023).

How the values were obtained:
SMARCA2 = target: T1, SMARCA2 (Homo sapiens, UniProt P51531); assay: HiBiT assay, degradation profiles; type: cell-based; settings: VHL-recruiting degrader
T1 construct: luminescence-based reporter assays with endogeneous HiBiT-tagged proteins have been developed that yield degradation profiles; endogenous in cells
T1 sequence (P51531 whole entry): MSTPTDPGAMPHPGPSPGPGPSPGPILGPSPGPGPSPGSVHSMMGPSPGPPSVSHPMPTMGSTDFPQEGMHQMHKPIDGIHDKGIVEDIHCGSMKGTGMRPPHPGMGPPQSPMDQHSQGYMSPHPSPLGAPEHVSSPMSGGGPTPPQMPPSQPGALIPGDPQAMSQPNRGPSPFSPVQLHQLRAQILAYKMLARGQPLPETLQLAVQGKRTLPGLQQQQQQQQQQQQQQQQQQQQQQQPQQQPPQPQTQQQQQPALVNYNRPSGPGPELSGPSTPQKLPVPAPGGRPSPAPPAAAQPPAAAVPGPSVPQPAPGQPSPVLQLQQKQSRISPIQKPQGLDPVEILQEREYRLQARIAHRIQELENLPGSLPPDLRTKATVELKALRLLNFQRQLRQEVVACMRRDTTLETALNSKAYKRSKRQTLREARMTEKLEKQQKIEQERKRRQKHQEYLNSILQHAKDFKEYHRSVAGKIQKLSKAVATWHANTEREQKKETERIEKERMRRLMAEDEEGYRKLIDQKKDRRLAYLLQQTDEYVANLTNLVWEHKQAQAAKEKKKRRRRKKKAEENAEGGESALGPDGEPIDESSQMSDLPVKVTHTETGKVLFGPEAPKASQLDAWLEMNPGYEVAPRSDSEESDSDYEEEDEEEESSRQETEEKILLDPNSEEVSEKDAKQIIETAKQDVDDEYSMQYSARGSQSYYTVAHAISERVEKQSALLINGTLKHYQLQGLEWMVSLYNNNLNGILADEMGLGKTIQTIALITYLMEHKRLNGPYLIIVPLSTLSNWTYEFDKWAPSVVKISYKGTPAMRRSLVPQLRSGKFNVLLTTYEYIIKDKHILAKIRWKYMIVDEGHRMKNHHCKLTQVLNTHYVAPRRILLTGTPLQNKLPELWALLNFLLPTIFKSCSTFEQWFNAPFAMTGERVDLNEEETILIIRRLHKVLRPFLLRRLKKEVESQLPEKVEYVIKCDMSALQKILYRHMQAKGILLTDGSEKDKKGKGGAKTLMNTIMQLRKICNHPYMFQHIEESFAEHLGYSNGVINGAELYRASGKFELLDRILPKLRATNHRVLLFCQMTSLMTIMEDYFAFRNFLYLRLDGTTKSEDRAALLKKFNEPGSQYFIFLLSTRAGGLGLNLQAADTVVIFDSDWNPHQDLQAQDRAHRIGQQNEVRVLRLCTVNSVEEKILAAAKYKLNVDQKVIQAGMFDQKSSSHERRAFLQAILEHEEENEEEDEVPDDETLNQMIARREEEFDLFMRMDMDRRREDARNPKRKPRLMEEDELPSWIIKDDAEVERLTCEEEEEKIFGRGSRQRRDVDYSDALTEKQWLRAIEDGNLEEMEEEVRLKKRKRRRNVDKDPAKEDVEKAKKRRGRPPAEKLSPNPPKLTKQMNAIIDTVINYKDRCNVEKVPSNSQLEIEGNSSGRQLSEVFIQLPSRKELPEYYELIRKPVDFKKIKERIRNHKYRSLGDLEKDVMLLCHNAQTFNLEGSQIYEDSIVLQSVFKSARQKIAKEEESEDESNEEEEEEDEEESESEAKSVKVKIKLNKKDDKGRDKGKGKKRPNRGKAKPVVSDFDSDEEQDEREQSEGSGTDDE
Source text: To monitor the intracellular degradation, luminescence-based reporter assays with endogeneous HiBiT-tagged proteins have been developed that yield degradation profiles, from which maximum degradation levels (Dmax) as well as the half-maximum degradation concentration (DC50) can be derived to estimate the potency of a degrader molecule,[48] which is instrumental in degrader design (see Section 4.2). As a matter of fact, variants of this technology are applied to characterize the different steps in TPD, such as target engagement, ternary complex formation, and target ubiquitination,[115] providing complementary kinetic information to the other experimental approaches discussed.
Figure 6 lists all of our designs in this study (Linkers 1–6) along with ACBI1, a previously optimized VHL-recruiting degrader of SMARCA2.[28] Informed by the random forest classifier, which was trained and validated on about 100 known compounds (model accuracy of 83%), the designs generally involve rigid linkers that contain (aromatic) ring structures with low molecular weight. […] By contrast, 34 designs that incorporated typical alkyl and PEG linkers spanning 4 to ∼20 atoms as well as known linker moieties, such as triazoles and phenyl rings (o, m, or p-substituted to provide different geometries), only produced two active degraders.
Figure 7 Experimental confirmation of degrader designs. […]

[1] = target: SMARCA2-VHL ternary complex (Homo sapiens, UniProt P40337+P51531); assay: AlphaLISA assay measuring ternary complex formation; type: binding
Sequence of SMARCA2-VHL ternary complex (P51531 1373-1511 limits assumed): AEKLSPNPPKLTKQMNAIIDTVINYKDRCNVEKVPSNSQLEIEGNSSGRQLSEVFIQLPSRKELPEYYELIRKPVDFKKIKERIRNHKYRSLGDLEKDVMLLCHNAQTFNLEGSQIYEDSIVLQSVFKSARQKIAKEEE
Sequence of SMARCA2-VHL ternary complex (P40337 54-213 limits assumed): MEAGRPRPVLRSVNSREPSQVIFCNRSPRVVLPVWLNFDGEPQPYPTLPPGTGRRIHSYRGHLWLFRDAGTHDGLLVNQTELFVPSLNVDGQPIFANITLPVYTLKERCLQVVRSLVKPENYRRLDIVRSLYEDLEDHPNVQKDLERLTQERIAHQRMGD
Sequence of SMARCA2-VHL ternary complex (Q15369 17-112 partner limits assumed): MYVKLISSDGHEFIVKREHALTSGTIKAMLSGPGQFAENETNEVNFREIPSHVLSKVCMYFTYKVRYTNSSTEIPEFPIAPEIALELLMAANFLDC
Sequence of SMARCA2-VHL ternary complex (Q15370 1-104 partner limits assumed): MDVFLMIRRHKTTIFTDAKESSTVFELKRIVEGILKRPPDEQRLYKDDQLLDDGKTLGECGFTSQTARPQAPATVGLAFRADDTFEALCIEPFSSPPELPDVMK
Source text: Competitive-binding and proximity-based assays can also probe the degree of degrader–POI engagement or ternary complex formation (Table 1), thus allowing the determination of binding affinities and cooperativity. These techniques measure changes in the polarization of a fluorescently labeled target protein upon binding to a degrader, as in fluorescence polarization (FP),[85] or detect intensity changes, upon ternary complex formation, in the fluorescence or luminescence signal emitted from beads tagged to the POI or E3 ligase, as in time-resolved Förster resonance energy-transfer (TR-FRET)[86] or in the amplified luminescent proximity homogeneous assay (ALPHA).[87] In the proximity ligation assay (PLA), a technology that is gaining popularity in TPD research, the signal is even further amplified through antibody-attached oligonucleotide hybridization.[88] These methods have been used in TPD studies for the identification of selective degraders and for the high-throughput screening of degrader designs.[39]−[41],[89] In particular, ALPHA has a high dynamic range and signal-to-noise ratio and, when applied in a titration experiment (usually set up as an immunoassay called AlphaLISA), it yields relative populations of ternary complexes as a function of degrader concentration and is routinely employed as a tool in degrader design projects (see Section 4.2). […]

DC50 (SMARCA2): 37 nM
Dmax (SMARCA2): 94%
AlphaLISA (% of control) [1]: 100 % of control
SMILES: Cc1ncsc1-c1ccc(CNC(=O)[C@@H]2C[C@@H](O)CN2C(=O)[C@@H](NC(=O)C2(F)CC2)C(C)(C)C)c(OCCOc2ccc(CN3CCN(c4cc(-c5ccccc5O)nnc4N)CC3)cc2)c1 [ACBI1]
